Source: patent publication US6902728B1, “Chemokine receptor antagonist and cyclosporin in combined therapy” (Applied Research Systems ARS Holding N.V., priority 1998, dated 2005)
“And” between values parts separate entries of the source, which are not always exact repeats. Identical values can stand only once.

Experiments:
[1] = system: dermal microvascular endothelium (DMVEC); assay: In vitro RANTES binding assay on DMVEC (modified ELISA); parameters: species or system human
Method: The DMVEC were grown to confluency on coated 96 well flat bottom plates, The resultant endothelial monolayer was either left untreated or treated with various concentrations of IL-L1β (0.1 to 5 ng/ml) for 12 h. The RANTES binding assay was a modification of a previously described procedure (Pattison J. et al., 1994, Wiedermann C. J. et al., 1993). Horseradish, peroxidase (HRP) conjugated anti-human-RANTES monoclonal antibody VL1 (0.1 μg) was pre-incubated at 25° C. for 30 min with an excess of recombinant human RANTES (20 μg/ml) in DMVEC growth media (without supplements). The chemokine-antibody complex was added then used to assay the relative chemokine binding capacity of the microvascular endothelium. The endothelial monolayer was gently washed 1× with unsupplemented growth media (25° C.) and the chemokine-antibody complex was added and incubated at 25° C. for 30 min. The wells were then washed four times with media without sera at 25° C. […] The optical density at 406 nm of the plate was determined using an ELISA plate reader.
Since a reduction of monocyte infiltration into vascular luminal spaces represented a prominent feature of Met-RANTES treatment in both transplantation models, we set out to study potential mechanisms for this effect. […] Using an ELISA-like format, the capacity of DMVEC to bind the antigen-mAb complex as opposed to mAb alone was determined. […]

[2] = system: MonoMac 6 cells on DMVEC; assay: Monocyte recruitment on microvascular endothelium under physiological flow (laminar flow assay); type: cell-based, human
Method: The interaction of monocytes with DMVEC was studied in laminar flow assays performed essentially as descried (Weber C. et al., 1997, Kukerti S. et al., 1997, Piali L. et al., 1998). Briefly, DMVEC were grown to confluence in 35 mm Petri dishes, and stimulated with IL-1β (5 ng/ml) or left untreated for 12 h. The plates were assembled as the lower wall m a parallel wall flow chamber and mounted on the stage of an Olympus IMT-2 inverted microscope with 20× and 40× phase contrast objectives. Monotypes (MonoMac 6 cells) were cultured as reported (Ziegler-Heitbrock H. W. L. et al., 1988, Weber C. et al., 1993) and resuspended at 10^6/ml in assay buffer (HBSS) containing 10 mM Hepes/pH 7.4 and 0.5% HAS. Shortly before assay, 1 mM Mg^2+and 1 mM Ca^2+ was added. The cell suspensions were kept in a heating block at 37° C. during the assay and were perfused into the flow chamber at a rate of 1.5 dyn/cm for 5 min. For inhibition experiments, monocytes were preincubated with Met-RANTES at different concentrations (0.01-1 μg/ml) for 30 min on ice. The number of firmly adherent cells after 5 rain was quantified in multiple fields (at least 5 per experiment) by analysis of images recorded with a long integration JVC 3CCD video camera and a JVC SR L 900 E video recorder, and were expressed as cells/mm^2. The type of adhesion analysed was restricted to primary, i.e. direct interactions of monocytes with endotbelium. As an inverse measure of firm arrest, the number of cells rolling at reduced velocity on endothelium was determined within the last 30 sec. of the 5 min intervals, and were assessed as the percentage of all interactions in the field. The number of cells spreading or transmigrating after 5 min intervals was determined in high power fields as described (Luscinskas F. W. et al., 1994), and expressed as percentage of cells firmly attached.
In an attempt to gain insight into potential mechanisms of action of Met-RANTES, we studied whether a blockade of RANTES receptors could inhibit the firm arrest and diapedesis of monocytes on microvascular endothelium. To this end, we used monocytic MonoMac 6 cells that show the adhesive characteristics and integrin repertoire of mature monocytes, and express several chemokine receptors including CCR1 (Erl W. et al., 1995). DMVEC were grown to confluence on Petri dishes which were either left unstimulated or were activated with IL-1β (5 ng/ml) for 12 h. […] Under such physiological flow conditions, MonoMac 6 cells undergo short periods of rolling, and the attachment of a proportion of cells can be readily converted into shear-resistant arrest. After 5 min of accumulation, the number of MonoMac 6 cells that had undergone firm adhesion to the endothelium was determined (FIG. 2(a)).

[3] = system: human microvascular endothelial cells (DMVEC); assay: FACS analysis of adhesion molecule surface expression on DMVEC; type: cell-based; conditions: IL-1β 5 ng/ml, 12 hr; 3 independent experiments
Method: Flow cytometry analysis of dermal microvascular cells (DMVEC) was performed essentially as described (Weber C. et al., 1995). Briefly, confluent DMVEC stimulated with IL-Iβ (5 ng/ml), or left untreated for 12 h, were trypsinized, reacted with IL-saturating concentrations of ICAM-1 mAb RR1/1 (kindly provided by Dr. R. Rothlein), E-selectin mAb, VCAM-1 mAb (both Serotec), or isotype control for 30 min on ice, stained with fluorescein isothiocyanate (FITC)-conjuzated goat anti-mouse IgG (Boehringer Mannheim), and analysed in a FACScan (Becton Dickinson). After correction for unspecific binding, data were expressed as specific mean log fluorescence intensity (sMFI) in channels.

Substance: RANTES: recombinant human C-C chemokine (regulated upon activation, normal T-cell expressed and secreted)
- RANTES binding to microvascular endothelium following prestimulation ([1]; prestimulation with proinflammatory cytokine (5 ng/ml, 12 hours)): greatly increased
- RANTES binding to microvascular endothelium without prestimulation ([1]; resting DMVEC, HRP-VL1 mAb/RANTES complex): could bind some RANTES protein
- spreading or transmigration of monocytes ([2]; after firm arrest, 5 min, IL-1β activated DMVEC): did not alter
- firm adhesion of monocytic cells to unstimulated microvascular endothelium ([2]; endothelial cells pre-exposed to RANTES): no significant effect
- firm arrest and accumulation of monocytes on IL-1β-activated microvascular endothelium ([2]; endothelium pre-exposed to RANTES (10 ng/ml, 30 min), within 5 min): markedly enhanced
- fraction of monocytes rolling on the activated microvascular endothelium ([2]; inverse measure of firm arrest, IL-1β activated DMVEC): reduced

Substance: IL-1β: proinflammatory cytokine purchased from Sigma, used to activate DMVEC
- ICAM-1 surface expression, SMFI [3]: 502 channels and 592 channels and 432 channels
